Drawing on ChEMBL document CHEMBL5338807, “Design and Synthesis of Bouchardatine Derivatives as a Novel AMP-Activated Protein Kinase Activator for the Treatment of Colorectal Cancer” (J Med Chem, 2023), this text covers IC50 for 36 compounds.

By IC50 is commonly meant the concentration needed to halve the response being measured.

The test concerns RKO. Nature of the test: Antiproliferative activity against human RKO cells assessed as reduction in cell viability incubated for 24 hrs. Format: functional, cell-based.
On to `CN(C)CCNc1nc(-c2[nH]c3ccc(Cl)cc3c2C=O)nc2ccccc12`, for which the IC50 is 5.3 µM. The value for `CCC(=O)Nc1nc(-c2[nH]c3ccccc3c2C=O)nc2ccccc12` was over 10 µM. Then `O=Cc1c(-c2nc(NCCN3CCCC3)c3ccccc3n2)[nH]c2ccc(Cl)cc12`, with 2.5 µM; and `O=Cc1c(-c2nc(NCCN3CCCC3)c3ccccc3n2)[nH]c2ccc(F)cc12`, with 2.1 µM.

For the compound `O=Cc1c(-c2nc(NCCCC(=O)N3CCCC3)c3ccccc3n2)[nH]c2ccccc12`, the IC50 came out at 8.7 µM. Then `O=Cc1c(-c2nc(NCCO)c3ccccc3n2)[nH]c2ccccc12`, with over 10 µM; and `O=Cc1c(-c2nc(NCC3CC3)c3ccccc3n2)[nH]c2ccccc12`, with 4.8 µM. As for `CN(C)CCCNc1nc(-c2[nH]c3ccc(Cl)cc3c2C=O)nc2ccccc12`, the IC50 is 4.1 µM. Then `O=Cc1c(-c2nc(Nc3ccc(N4CCCCC4)cc3)c3ccccc3n2)[nH]c2ccccc12`, with over 10 µM; and `CN(C)CCCN(CCCN(C)C)c1nc(-c2[nH]c3ccccc3c2C=O)nc2ccccc12`, with 1.8 µM; and `Cc1c(-c2nc(NCCN3CCCCC3)c3ccccc3n2)[nH]c2ccccc12`, with over 10 µM. The value for `Cc1ccc2[nH]c(-c3nc(NCCCN(C)C)c4ccccc4n3)c(C=O)c2c1` was 2 µM. The value for `Cc1c(-c2nc(NCCCN3CCN(C)CC3)c3ccccc3n2)[nH]c2ccccc12` was over 10 µM; that for `O=Cc1c(-c2nc(NCCc3ccc(C(F)(F)F)cc3)c3ccccc3n2)[nH]c2ccccc12` was 4.2 µM. Take `C=Cc1c(C)nc(-c2[nH]c3ccccc3c2C(C)=O)nc1NCCCN1CCCC1`: the IC50 was over 10 µM. Then `CN(C)CCCNc1nc(-c2[nH]c3ccccc3c2C(=O)O)nc2ccccc12`, with 5.3 µM. Then `CCCS(=O)(=O)Nc1nc(-c2[nH]c3ccccc3c2C=O)nc2ccccc12`, with over 10 µM.

On to `O=Cc1c(-c2nc(NCCCC(=O)O)c3ccccc3n2)[nH]c2ccccc12`, for which the IC50 is over 10 µM. Consider `O=Cc1c(-c2nc(NC(=O)c3cccnc3)c3ccccc3n2)[nH]c2ccccc12`, for which the IC50 was over 10 µM. The value for `O=Cc1c(-c2nc(NCC(F)F)c3ccccc3n2)[nH]c2ccccc12` was 7.9 µM; that for `O=Cc1c(-c2nc(NC(C3CC3)C3CC3)c3ccccc3n2)[nH]c2ccccc12` was 6 µM; that for `O=Cc1c(-c2nc(NCCNC(=O)C3CC3)c3ccccc3n2)[nH]c2ccccc12` was 1.2 µM.

As to `Cc1ccc2[nH]c(-c3nc(NCCN(C)C)c4ccccc4n3)c(C=O)c2c1`, the half-maximal inhibitory concentration (IC50) stood at 0.7 µM. Then `O=Cc1c(-c2nc(NC34CC5CC(CC(C5)C3)C4)c3ccccc3n2)[nH]c2ccccc12`, with over 10 µM; and `Cc1ccc(CCNc2nc(-c3[nH]c4ccccc4c3C=O)nc3ccccc23)cc1`, with 1.8 µM; and `COCCCNc1nc(-c2[nH]c3ccccc3c2C=O)nc2ccccc12`, with 1.1 µM.

In the case of `COC(=O)c1c(-c2nc(NCCN3CCCC3)c3ccccc3n2)[nH]c2ccccc12`, the IC50 came to 6.1 µM.

`CN(C)CCCNc1nc(-c2[nH]c3ccc(F)cc3c2C=O)nc2ccccc12`: the 50% inhibitory concentration (IC50) is 1.9 µM.

On to `CC(=O)c1c(-c2nc(NCCCN(C)C)c3ccccc3n2)[nH]c2ccccc12`, for which the IC50 was over 10 µM. Then `COc1ccc2[nH]c(-c3nc(NCCN4CCCC4)c4ccccc4n3)c(C=O)c2c1`, with 1.6 µM; and `CC(C)(C)OC(=O)NCCCNc1nc(-c2[nH]c3ccccc3c2C=O)nc2ccccc12`, with 5.4 µM.

On to `COCCNc1nc(-c2[nH]c3ccccc3c2C=O)nc2ccccc12`, for which the IC50 turned out to be 4.1 µM. Then `CN(C)CCNc1nc(-c2[nH]c3ccc(F)cc3c2C=O)nc2ccccc12`, with 1.7 µM; and `CC(=O)c1c(-c2nc(NCCN(C)C)c3ccccc3n2)[nH]c2ccccc12`, with over 10 µM.

For the compound `CCCC(=O)Nc1nc(-c2[nH]c3ccccc3c2C=O)nc2ccccc12`, the IC50 was over 10 µM. For `O=Cc1c(-c2nc(NCCCC(F)(F)F)c3ccccc3n2)[nH]c2ccccc12`, the 50% inhibitory concentration (IC50) worked out at 4.6 µM.
